The values below come from PubChem BioAssay (NCI).

Several values for one entry are separate records, joined by “and”; a condition that tells them apart may be missing. Identical values can stand only once.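 Step 1: Grow cells in 96-well plates. Step 2: Expose to compound for 48 hours at 5 concentrations. Step 3: Interpolate endpoints linearly; if unreached, use highest concentration. GI50 marks 50% less growth. Definition used: TGI = concentration required for complete inhibition of growth.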

What all share (assay): NCI tumour cell line growth inhibition, 48 h
The subject of assay [1] is RXF-631 renal.
Assay [2] relates to DMS 114 small cell lung.
The test system of assay [3] is SNB-78 CNS.
Assay [4] has as its system DLD-1 colon.
The test system of assay [5] is KM20L2 colon.
Assay [6] relates to XF 498 CNS.
Assay [7] has as its system M19-MEL melanoma.
The test system of assay [8] is HOP-18 NSCLC.
The test system of assay [9] is MDA-N.
Assay [10] relates to P388 leukemia.
For assay [11], the system named is P388/ADR leukemia.

For `COC(=O)NC1C(C)OC(OC2C/C=C(/C)C3C=CC4C(OC5CC(OC6CCC(OC7CC(O)C(OC8CCC(O)C(C)O8)C(C)O7)C(C)O6)C(OC(C)=O)C(C)O5)C(C)CC(C)C4C3(C)/C(O)=C3/C(=O)OC4(CC(C=O)=CC(O)C4/C=C\2C)C3=O)CC1(C)[N+](=O)[O-]` (configuration not stated), the TGI in assay [1] was 10800 nM; in assay [2] it was 1760 nM and 494 nM; in assay [3] it was 15400 nM and 26700 nM; in assay [4] it was 11700 nM and 1800 nM; in [5], 3680 nM and 1420 nM; in assay [6], 500 nM and 2060 nM. Further, the TGI in assay [7] was 2020 nM and 473 nM; in assay [8], 14500 nM and 3620 nM; in [9] it was 3520 nM; in assay [10], 2050 nM; in [11], 17300 nM. The GI50 is 190 nM in assay [2]; 590 nM in assay [3]; 427 nM in assay [4]; 365 nM in [5]; 385 nM in [6]; 98.2 nM in assay [7].
